According to PubChem BioAssay AID179 (DTP/NCI, 2004):
Activity calls are given as the source filed them.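 The calls were made as follows: active = compounds giving half or more protection of infected cells from virus-caused growth loss, again on retest; inactive = the rest.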

Test system: CEM cells HIV-1 protection, formazan growth assay
Experiment: NCI AIDS Antiviral Assay
Conditions: for IC50: measured here: growth of uninfected CEM cells
Method in brief: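 Category rules: moderately active means at least 50% protection on retest, and confirmed active means 100% protection reproducibly. The underlying data came from a formazan growth assay in HIV-1-infected CEM cells.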

SMILES	EC50 [µM]	IC50 [µM]	outcome
CC1CCCc2c1n[nH]c2CC1CC(=O)NC(=O)C1 (stereo not given)	> 200	> 200	–
COc1cc(Br)c(CC2NCCc3cc(OC)c(OC)cc32)cc1OC (stereo not given)	> 224	> 224	–
CCN(CC)c1ccc(/C=C2/C=Cc3ccccc32)cc1	> 7.24	> 7.24	–
COc1ccc(-c2nc3sc(-c4ccc(OC)c(OC)c4)nc3s2)cc1OC	> 200	> 200	–
O=C(O)c1cc(Cc2ccc(O)c(C(=O)O)c2)ccc1O	562	871	active
C=C1c2nc3ccccc3n2C=C(c2ccccc2)N1c1ccc(Cl)cc1	> 200	32.4	–
On1ccccc1=S	> 2	1.32	–
CC12CC(OC1=O)C(=O)c1ccccc12 (stereo not given)	> 468	209	–
CCOC(=O)c1[nH]n(-c2ccccc2)c(=O)c1/C=N/C(=S)Nc1ccccc1OC	> 200	93.3	–
Cc1cc2c3c(c1)CCCN3CCC2	> 200	> 200	–
Cc1ccc(C)c(NC(=O)CC/C(=N\NC(=O)C(=O)NN)C(C)C(=O)c2ccc(O)cc2)c1 (stereo not given)	–	–	inactive
CC(=O)NCCSS(=O)(=O)CCCCS(=O)(=O)SCCNC(C)=O	117	214	–
COC1=CC(=O)c2ccccc2C1(C)C1=NC(C)(C)CO1 (stereo not given)	> 631	> 631	–
CC(=O)OC(Cn1cncn1)(Cn1cncn1)c1ccc(Cl)cc1Cl	> 200	> 200	–
CC(C)NC(=O)OCc1c(COC(=O)NC(C)C)n(C)c2c1ccc1cc(Cl)c(Cl)cc12	> 200	2.95	–
C[C@H](N)C(O)C/C=C\C/C=C\C/C=C\C/C=C\C/C=C\C/C=C\CCCCCCC(O)[C@H](C)N (stereo not given in full)	–	–	inactive

SMILES	EC50 [µM]	IC50 [µM]	outcome
N#CC12CNCC1CN=N2 (stereo not given)	> 200	> 200	–
COc1ccc2c3c(n(Cc4ccccc4)c(=O)c2c1)-c1cc(OC)c(OC)cc1C3C (stereo not given)	> 6.31	> 6.31	–
CN(C)c1ccc(-c2c(C#N)c(N)[nH]c(=S)c2C#N)cc1	> 126	50.1	–
CCCCNC(=O)Sc1ccccc1C(=O)N[C@H](C)C(N)=O	1.12	112	–
CC1CCC/C(=N/NC(N)=O)C12CC2 (stereo not given)	> 200	> 200	–
c1cc(CSP234N5CCN2CCN3CCN4CC5)ccc1CSP123N4CCN1CCN2CCN3CC4	> 100	36.3	–
CCCCCCCCC(=O)NCCN(CCN)C(=O)CCCCCCCC	> 100	5.5	–
COC(=O)C1C2CC3C(C2=O)C31 (stereo not given)	> 200	> 200	–
CCOP(=O)(CC(=O)C1CC1)OCC	–	–	inactive
O=c1c(-c2cccc3ccccc23)c(-c2cccc3ccccc23)c1=O	–	–	inactive
COC(=O)c1c2c(cc3c1CC1(Cc4cc5c(cc4C1=O)CCC5)C3)CCC2 (stereo not given)	> 200	52.5	–
O=C(O)CCC(NC(=O)c1ccc(Oc2nc3ccccc3nc2-c2ccccc2)cc1)C(=O)O (stereo not given)	> 200	> 200	–
CC/C=C/c1cc2c(c3[nH]ccc13)[C@@H](C)CC2C (stereo not given in full) (tested in a mixture with another compound)	–	–	inactive
COC(=O)C1CCC(=O)N1C(c1ccc(OC)cc1)c1ccc2c(c1)OCO2 (stereo not given)	> 200	11.5	–
CCN(CC)C1C=CCC2C1S(=O)(=O)C2(C)C (stereo not given)	> 977	> 977	–
O=c1cc(N2CCOCC2)n2c(ccc3ccccc32)n1	> 200	186	–
